{"source": "patent US5561154A", "about": "“Treatment of acute urinary retention” (Institut de Recherches Chimiques et Bioloques Appliquees …, priority 1995, dated 1996)", "key": {"[1]": {"experiment": "Stability in aqueous solution", "assay_type": "physicochemical", "from_the_text": "In the parent application it was pointed out that DAM, the active ingredient, is effectively soluble and stable in water in the form of its hydrochloride salt. Deacetyl moxisylyte hydrochloride (DAM.HCl) is soluble up to a concentration of 10% p/v, which is the upper therapeutically acceptable concentration, in pure (i.e. distilled, bidistilled or preferably deionized) water and in aqueous solutions buffered at pH 5-7. Water solutions containing 1% p/v of deacetyl moxisylyte hydrochloride without any antioxidant and kept at pH 5, 6 and 7, are stable for 15 days at 25° C. and for 90 minutes at 121° C. […] More details regarding the solubility and stability in water of DAM.HCl are given in the parent application."}, "[2]": {"experiment": "Hepatotoxicity on administration (general statement)", "assay_type": "in vivo", "details": "administered iv at 50 mg or less doses"}, "[3]": {"target": "T1, isolated rabbit urethra (contraction induced by noradrenaline) (Oryctolagus cuniculus, UniProt O02824)", "T1 construct": "from tissue; host or cells: isolated urethra of male rabbits", "T1 sequence (O02824 1-466)": "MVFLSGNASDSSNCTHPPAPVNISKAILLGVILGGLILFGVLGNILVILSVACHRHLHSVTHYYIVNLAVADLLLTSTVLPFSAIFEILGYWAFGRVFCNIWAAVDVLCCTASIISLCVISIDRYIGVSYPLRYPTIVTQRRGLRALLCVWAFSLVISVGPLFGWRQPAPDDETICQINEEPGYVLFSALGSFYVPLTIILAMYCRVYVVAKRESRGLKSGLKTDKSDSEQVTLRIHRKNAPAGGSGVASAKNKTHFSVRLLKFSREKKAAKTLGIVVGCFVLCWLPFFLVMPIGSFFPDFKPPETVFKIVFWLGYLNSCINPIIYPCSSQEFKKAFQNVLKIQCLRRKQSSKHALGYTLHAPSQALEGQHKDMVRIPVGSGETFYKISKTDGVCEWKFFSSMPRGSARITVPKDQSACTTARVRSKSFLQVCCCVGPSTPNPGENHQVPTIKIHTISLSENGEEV", "experiment": "Isolated rabbit urethra: antagonism of noradrenaline-induced contraction", "assay_type": "cell-based", "details": "against noradrenaline, isolated male rabbit urethra, 5 experiments; read-out: pA2 (converted)", "method": "After slaughtering of male rabbits, each urethra was taken out then placed into a receptacle containing a physiological saline aqueous solution, and kept at 37° C. with an oxygen/carbon oxide mixture (95/5 p/p). One end of the urethra was fixed to a pressure captor linked to a recording device for measuring the organ contractions.\nContracturing effects of noradrenaline were determined by succesive infusions of increasing […] up to the contraction corresponding to the maximal amplitude. The measures were carded out with and without DAM.HCl.\nThe activity of DAM.HCl was measured as a pA2 value, pA2 being here the cologarithm of the antagonist molar concentration in the presence of which the noradrenaline concentration needs to be multiplied by two to obtain the same effect in the absence of antagonist."}, "α1 -adrenoreceptors": {"tested_on": "α1 -adrenoreceptors", "experiment": "Radioligand binding, (125I)-HEAT, rabbit urethral membranes", "method": "(§1) α-adrenoreceptors can be by use of a ^3 H- or 125 I- labelled specific antagonist (or agonist) on membrane preparations of the concerned organ, here rabbit urethra.\n(§2) A male rabbit urethral grinding was filtered then centrifugated. The filtrate thus obtained is a membrane preparation which was incubated with a radioactive ligand, namely (^125 I)-HEAT [wherein HEAT is 2-[2-(3-iodio-4-hydroxyphenyl)ethyl-aminoethyl]-tetralone for the α1 -adrenoreceptors, and (^3 H)-rauwolscine for the α2 -adrenoreceptors.\n(§3) The incubations were carded out in the absence or in the presence of an increasing concentration of the product to be tested. The affinity was measured by means of the inhibition coefficient (Ki)."}, "α2 -adrenoreceptors": {"target": "α2 -adrenoreceptors", "experiment": "Radioligand binding, (3H)-rauwolscine, rabbit urethral membranes", "details": "male rabbit urethral membrane preparation", "method": "as §1, §2, §3"}, "[4]": {"tested_on": "urethral and arterial pressures induced by noradrenaline", "experiment": "Anesthetized rabbits: noradrenaline-induced increases in urethral and arterial pressure", "assay_type": "in vivo, rabbit", "details": "Oryctolagus cuniculus, iv, noradrenaline-induced increase, i.v.", "method": "Male White New-Zealand rabbits (weighing 3 kg each) were anesthetized with ethyl-urethane. Arterial pressure (AP) was measured with a pressure captor linked to a catheter located in the carotid; urethral pressure (UP) was determined with a pressure captor linked to a catheter introduced into the urethra and located at the level of the vesical base. The femoral vein was also catheterized for administering the products to be tested.\nThe increases in the urethral and arterial pressures, which were induced by noradrenaline, were determined after i.v. injections of increasing doses for periods of 3 minutes each, from 15 minutes before the injection of the α-blocking product to be tested to 15 minutes after said injection.\nThe results thus obtained are expressed hereinafter an inhibiting dose 50% (ID-50) which is defined as the dose of a-blocking product in the presence of which, the effect of the largest dose of noradrenaline is divided by a factor 2."}, "[5]": {"tested_on": "increase in UP induced by electric stimulation of the hypogastric nerve", "experiment": "Anesthetized dogs: hypogastric nerve stimulation, urethral pressure, AP and HR", "assay_type": "in vivo, dog", "details": "anesthetized Beagle dogs", "method": "Adult male Beagle dogs were anesthetized by i.v. injection of sodium barbital (30 mg/kg).\nThe cannulation of each carotid and urethra allowed measurement of AP and UP. By derivation of the AP signal, the heart rate (HR) was recorded.\nThe increase in UP was induced by electric stimulation of the hypogastric nerve distal roots (10 ms, 30 Hz, 5s, 6-10 V). That increase in UP is determined before and 15 minutes after the injection of the α-blocking agent to be tested.\nThe results were expressed by calculating a ID-50 defined as the dose of α-blocking agent which inhibits 50% of the effects of the hypogastric nerve stimulation on UP. The effects of said ID-50 were determined on AP and HR in order to obtain a variation percentage with respect to the initial values."}, "liver": {"tested_on": "liver", "experiment": "Absence of hepatotoxicity, 2-month daily i.v. injection in rats", "assay_type": "in vivo, rat", "details": "male Wistar rats, 1.5 mg/kg daily i.v. for 2 months", "method": "Adult male Wistar rats were daily injected with 1.5 mg/kg of DAM.HCl in saline solution (i.e. the solution of Ex 1) per i.v. route for 2 months, then slaughtered."}, "[6]": {"details": "pure water and aqueous solutions buffered at pH 5-7; cited from earlier work"}, "[7]": {"details": "cited from earlier work"}}, "note": "Counter-ions that a name gives are not always drawn. Like-named read-outs stand apart in the source and are kept apart here."}
{"smiles": "Cc1cc(OCCN(C)C)c(C(C)C)cc1O", "note": "[DAM, 4-[2-(dimethylamino)ethoxy]-2-methyl-5-(1-methylethyl)phenol]", "values": [{"measurement": "stability in aqueous solution", "setting": "[1]; aqueous solution", "result": "stable"}, {"measurement": "degradation on sterilization of aqueous solution", "setting": "[1]; classical sterilization, e.g. autoclave 15 minutes at 121° C. or sterilizing filtration", "result": "without degradation"}, {"measurement": "hepatotoxicity i.v.", "setting": "[2]", "result": "substantially devoid of hepatotoxicity"}]}
{"smiles": "Cc1cc(OCCN(C)C)c(C(C)C)cc1O", "note": "[DAM.HCl, Deacetyl moxisylyte hydrochloride]", "values": [{"measurement": "Kb", "setting": "[3]", "result": 3.16, "unit": "nM"}, {"measurement": "times more active on α1 -adrenoreceptors than on α2 -adrenoreceptors", "setting": "α1 -adrenoreceptors; from Ki values of table II", "result": "six"}, {"measurement": "Ki", "setting": "α1 -adrenoreceptors; male rabbit urethral membrane preparation, (125I)-HEAT", "result": "109 ± 20", "unit": "nM"}, {"measurement": "Ki", "setting": "α2 -adrenoreceptors", "result": "637 ± 94", "unit": "nM"}, {"measurement": "ED50", "setting": "[4]; n = 5, read-out: ID-50 i.v., AP (arterial pressure)", "result": "3.5 ± 0.65", "unit": "mg/kg"}, {"measurement": "ED50", "setting": "[4]; n = 5, read-out: ID-50 i.v., UP (urethral pressure)", "result": "0.4 ± 0.03", "unit": "mg/kg"}, {"measurement": "Effect of ID-50 on AP (variation percentage with respect to the initial values)", "setting": "[5]; at the ID-50 dose", "result": -6, "unit": "%"}, {"measurement": "Effect of ID-50 on HR (variation percentage with respect to the initial values)", "setting": "[5]; at the ID-50 dose", "result": -5, "unit": "%"}, {"measurement": "ID-50, effect on UP", "setting": "[5]; hypogastric nerve stimulation, 15 minutes after injection, in mg/kg", "result": "0.05 ± 0.01"}, {"measurement": "hepatotoxicity (study of organs, analysis of the liver)", "setting": "liver", "result": "no sign of hepatotoxicity"}, {"measurement": "solubility (soluble up to a concentration)", "setting": "[6]", "result": "> 10", "unit": "% p/v"}, {"measurement": "stability of water solution at 25° C.", "setting": "[7]; 1% p/v, no antioxidant, pH 5, 6 and 7, 25° C.", "result": 15, "unit": "days"}, {"measurement": "stability of water solution at 121° C.", "setting": "[7]; 1% p/v, no antioxidant, pH 5, 6 and 7, 121° C.", "result": 90, "unit": "min"}, {"measurement": "stability of water solution with Na2 SO3 at 95° C.", "setting": "[7]; 1% p/v, pH 5, 6 and 7, sodium sulfite 0.1 p/v, 95° C., no coloration", "result": 15, "unit": "days"}]}
{"smiles": "CC(=O)Oc1cc(C(C)C)c(OCCN(C)C)cc1C", "note": "[moxisylyte, 4-[2-(dimethylamino)ethoxy]-2-methyl-5-(1methylethyl)phenol acetate, reference compound]", "values": [{"measurement": "stability of solution stabilized with dimethyl-beta-cyclodextrin at 45° C.", "setting": "[7]; pH 5 solution, 1 mg/ml, dimethyl-beta-cyclodextrin as stabilizing agent, 45° C.", "result": 3, "unit": "months"}]}
